Assay results: ChEMBL document CHEMBL1201862, “PubChem BioAssay data set” (2004)
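Compound exposure: 48 hours, 5 concentrations, 96-well plates. Abbreviation: GI50, concentration required for 50% inhibition of growth.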 Active and inactive are the calls of the source. Rule as the data show it: active = GI50 up to about 1.1 µM and inactive = higher.

Experiments:
Experiment in all cases: NCI-60 cell line screen, 48 h
[1] = system: SF-268
[2] = system: UACC-257
[3] = system: SR
[4] = system: SN12C
[5] = system: MDA-N
[6] = system: T47D
[7] = system: NCI-H460
[8] = system: OVCAR-3
[9] = system: NCI-H23
[10] = system: BT-549
[11] = system: EKVX
[12] = system: HOP-62
[13] = system: UACC-62
[14] = system: A498
[15] = system: A549
[16] = system: SK-OV-3
[17] = system: SNB-19
[18] = system: ACHN
[19] = system: SK-MEL-28
[20] = system: DLD-1

Measured: GI50

C[C@]12C=CC(=O)C=C1[C@@H](F)C[C@H]1[C@@H]3CC[C@](O)(C(=O)CO)[C@@]3(C)C[C@H](O)[C@@]12F
inactive: [1] > 100 µM | [2] > 100 µM | [3] > 100 µM | [4] > 100 µM | [5] > 100 µM | [6] > 100 µM | [7] > 100 µM | [8] > 100 µM | [9] > 100 µM | [10] > 100 µM | [11] > 64.4 µM | [12] > 100 µM | [13] > 100 µM | [14] > 100 µM | [15] > 100 µM | [16] 3.33 µM | [17] > 100 µM | [18] > 100 µM | [19] > 100 µM | [20] > 100 µM

N#Cc1ccccc1/C=N/O
inactive: [1] > 100 µM | [2] > 100 µM | [3] > 100 µM | [4] > 100 µM | [7] > 59.2 µM | [8] > 100 µM | [9] > 100 µM | [11] > 100 µM | [12] > 100 µM | [13] > 100 µM | [14] > 100 µM | [15] > 100 µM | [16] > 100 µM | [17] > 100 µM | [18] > 60.3 µM | [19] > 100 µM | [20] > 93.8 µM

COC(=O)c1c/c(=N\NC(=O)CC(=O)Nc2ccccc2Cl)c2ccccc2o1
inactive: [1] > 100 µM | [2] > 100 µM | [3] > 100 µM | [4] > 100 µM | [7] > 100 µM | [8] > 100 µM | [9] > 100 µM | [11] > 100 µM | [12] > 100 µM | [13] > 100 µM | [14] > 10 µM | [15] > 100 µM | [16] > 100 µM | [17] > 100 µM | [18] > 100 µM | [19] > 100 µM | [20] > 100 µM
